The values that follow come from a melting point compilation (Tetko et al.; mined from patent text by program, amines drawn as free bases though some values may be those of a salt).

For orientation: melting point means the temperature of the solid-liquid transition. On to `O=Cc1ccc(Sc2nc3cc(F)c(F)cc3[nH]2)o1`, for which the melting point was determined as 133 °C.

With `COc1ccc(C)cc1NC(=O)Nc1ccc(C2=CCN(C(=O)Nc3ncccc3CO)CC2)cc1`, the melting point lay within 103 to 108 °C.

On to `COc1cc(C=O)nnc1OC`, for which the melting point fell in the range of 179 to 181 °C.

`CC1(C)CCC(C)(C)c2cc(OCc3ccc(CO)cc3)ccc21` yielded a melting point of 108 to 109 °C.

`Nc1c([N+](=O)[O-])cc(Br)c2c1CN(Cc1ccc(C(F)(F)F)cc1)CC2` showed a melting point of 119 to 120 °C.

For `CCCc1c(OCCCS(=O)(=O)c2ccc(CC(=O)O)cn2)ccc(C(C)=O)c1O`, the melting point was 154 to 156 °C.

In the case of `Nc1nc(C2CCN(C(=O)Cc3ccc4c(c3)OCO4)CC2)c2ccccc2n1`, the melting point fell in the range of 167 to 168 °C.

In turn, `CCCc1c2nc(C(=O)OCC)ccc2cc2c(=O)cc(C(=O)OCC)oc12` showed a melting point of 168 to 171 °C.

`C[C@@H](n1ccnc1)C(O)(c1ccc(Cl)cc1)c1ccc(Cl)cc1` displayed a melting point of 159 to 161 °C.

As to `Cc1c(C(=O)Nc2ccc(N3CCC(N4CCOCC4)CC3)c(Cl)c2)cnn1-c1ccc(Cl)cc1`, the melting point lay within 238 to 240 °C.

Compound `CC(N)=CC(=O)c1cccs1` returned a melting point of 170 to 172 °C.

With `CC(=O)NS(=O)(=O)c1cccc(N)c1`, the melting point was 148 to 150 °C.

`CC1(Br)CCCNC1=O` (stereo unspecified) gave a melting point of 107 to 109 °C.

The compound `COc1ccc(Cn2c(=O)c3cccnc3n(CCCCl)c2=O)cc1` yielded a melting point of 114 to 115 °C.

Compound `O=C(NCC12CC3CC(CC(C3)C1)C2)c1cc(O)ccc1Cl` had a melting point of 263 to 264 °C.

`CC(C)(C)OC(=O)N1CCC2(Cc3ccc(C#N)cc3)C(=O)N(c3cc(Cl)nc(Cl)c3)C(=O)N12` (stereo unspecified) displayed a melting point of 179 °C.

On to `C=CCOc1cc(-c2cc(=O)c3c(O)cc(O)cc3o2)ccc1OC`, for which the melting point stood at 219 °C.

Consider `O=C(Nc1ccccc1Cl)Oc1ccc2c(c1)CCCN2Cc1ccccc1`, for which the melting point worked out at 130 °C.

The compound `COc1ccc(Oc2cnc(N)nc2N)c(C(C)C)c1` showed a melting point of 170 to 171 °C.

Compound `COc1ccc(-n2cnc3cc(N)ccc32)cc1` gave a melting point of 44 to 45 °C.

In turn, `CCOC(=O)c1sc2c(c1C)c(N)c(C(=O)c1ccccc1)n2C(C)=O` yielded a melting point of 188 °C.

On to `CN(Cc1cc(C(F)(F)F)cc(C(F)(F)F)c1)C(=O)c1nc(O)ncc1-c1ccccc1`, for which the melting point is 218 to 220 °C.

Consider `CCCCCCCCCCCCOc1ccc2c(c1)C(CCNC(=O)CCC)CC2` (stereo unspecified), for which the melting point was 68 to 69 °C.

Take `COc1ccc2nc(-c3ccc4c(c3)NC(=O)C4(C)C)[nH]c2c1`: the melting point is 85 to 90 °C.

`COc1ccc2ccccc2c1-c1c(C)c2c(c(C)c1P(=O)(c1ccccc1)c1ccccc1)CCC2` showed a melting point of 70.8 to 72.1 °C.

`O=S(=O)(Nc1cccc(C(=NO)c2cccnc2)c1)c1ccc(Cl)cc1` yielded a melting point of 170 °C.

`Cn1c(=O)c2c3oc4ccccc4oc3c3[nH]c4cc(O)ccc4c3c2c1=O` showed a melting point of 360 °C.

In turn, `Nc1nc(-c2cc(OCc3ccccc3)no2)cs1` showed a melting point of 129 to 131 °C.

Turning to `CN1CCN(c2ccc(N/C=C3\C(=O)NC(=O)c4ccc(-n5cccc5)cc43)cc2)CC1`, the melting point lay within 239 to 240 °C.

The compound `COCCOC(=O)C1=C(C)NC(C)=C(C(=O)OC(C)C)C1c1ccsc1Cl` (stereo unspecified) displayed a melting point of 123 to 124 °C.

`O=[N+]([O-])C/C=C/c1sc2ccc(Cl)cc2c1Cl` had a melting point of 143 to 146 °C.

`COC(=O)/C=C/c1ccc(-c2ccc(C)cc2)o1` came in with a melting point of 113 to 115 °C.

As for `COc1ccc(-c2ccc(S(=O)(=O)CC(C)N(O)C=O)cc2)cc1` (stereo unspecified), the melting point is 197 to 198 °C.

Regarding `CCCCCCc1cc2c(cc1OCCCC(=O)O)C(=O)CC2`, the melting point turned out to be 88 °C.

Consider `COC(=O)Nc1nc(C)c(-c2nc3ccccc3c(=O)n2-c2ccccc2)s1`, for which the melting point is over 275 °C.

With `CCS(=O)(=O)CCC(=O)NNC(=O)N1Cc2ccccc2Oc2ccc(O)cc21`, the melting point was 191 to 194 °C.

The compound `CS(=O)(=O)c1ccc(-c2cc(=O)n(Cc3ccc(F)cc3)nc2-c2ccc(F)cc2)cc1` returned a melting point of 150 to 151 °C.

In the case of `CC(C)COc1ccc(Br)cc1OCC(C)C`, the melting point came out at 47 °C.

Compound `c1ccc(Cn2ncc3c(NCC4CCCCC4)c4ccccc4nc32)cc1` had a melting point of 254 to 256 °C.

Take `CC1=CC(c2ccccc2)C(c2cccs2)=NN1` (stereo unspecified): the melting point was determined as 150 °C.

In the case of `O=[N+]([O-])c1ccccc1NCC12CC3CC(CC(C3)C1)C2`, the melting point was 106 to 109 °C.

`CCN(CC1CCCC1)c1nc2c(cc1CN(Cc1cc(C(F)(F)F)cc(C(F)(F)F)c1)c1nc(C(F)(F)F)co1)c(C)nn2C` yielded a melting point of 139 °C.

On to `CCCCCCOc1c(OC)cc(C(=O)NN=C2CCCCC2=Cc2ccccc2)cc1OC`, for which the melting point is 158 to 160 °C.

`C[C@H](c1ccccc1)n1c(N)nc2c(N)nc3ccccc3c21` came in with a melting point of 135 to 140 °C.

`O=C(O)CN(CCN(CC(=O)O)CC(=O)O)CCN(CC(=O)O)CC(=O)Nc1ccccc1` had a melting point of 125 °C.

For `CCCCCCCCCCCCC1(Cc2cc(N=Nc3ccc([N+](=O)[O-])cc3[N+](=O)[O-])ccc2O)COCCOCC(C)(C)COCCOC1`, the melting point lay within 64 to 65 °C.

`CNc1ccc([N+](=O)[O-])cc1[N+](=O)[O-]`: the melting point fell in the range of 177 to 178 °C.

In turn, `CC(C)CCOC(=O)C(O)C(CC(C)C)NC(=O)C(Cc1c[nH]cn1)NC(=O)C(CC(=O)NCCc1ccccc1)Cc1cccc2ccccc12` (mixture of isomers) showed a melting point of 82 to 87 °C.

Turning to `CNC(=O)Nc1nc2c(s1)C(C)(C)CC(C)(C)C2`, the melting point is over 250 °C.

Compound `CC1(C)C2CCC1(C)C(C(=O)OC(CSc1ccccc1)(C(=O)Nc1ccc(C#N)c(C(F)(F)F)c1)C(F)(F)F)C2` (stereo unspecified) returned a melting point of 140 to 143 °C.

For `CC(C)(C)n1cc(C#N)c2cc([N+](=O)[O-])cnc21`, the melting point fell in the range of 216 to 218 °C.

`CC(=O)c1c[nH]c(-c2ccc(O)cc2)n1` showed a melting point of 254 to 259 °C.

As for `NC(=O)c1ccc(-c2cnc3[nH]c(=O)n(CC4CCOCC4)c3n2)cc1`, the melting point is 273 to 275 °C.

As to `CN(C)c1ccc([N+](=O)[O-])c(C(=O)NCC2CCN(C(c3ccccc3)c3ccccc3)CC2)c1`, the melting point worked out at 200 °C.

In turn, `Cc1nc(-c2ccccc2)ncc1CN1CCN(c2ccc(O)cc2)CC1` displayed a melting point of 201 to 202 °C.

In turn, `COC(=O)c1nc2ccccc2c(N)c1C(=O)OC` yielded a melting point of 167 to 168 °C.

For `COc1ccc(NC(=O)Cn2c3c(c4c(Cl)c(Cl)ccc42)CCN(C(=O)OC(C)(C)C)CC3)cc1`, the melting point lay within 143 to 144 °C.

As for `COc1cc(NC(=O)CC(C)=O)c(OC)cc1Cl`, the melting point fell in the range of 105 to 106 °C.

The compound `Nc1ccccc1S(=O)(=O)N1CC=CC1` yielded a melting point of 104 to 105 °C.

In the case of `CCCCCCCCCCCCCCCCS(=O)(=O)NCCc1ccc(OCC(=O)O)cc1`, the melting point is 138 °C.

In the case of `Cn1ncc(C(=O)O)c1C(=O)Nc1ccn2nc(-c3cccc(F)c3)nc2c1`, the melting point was over 260 °C.
